Data reported in patent US20070042997A1, “Medicament for treatment of dermal pigmentation” (priority 2003, published 2007).

Test system: melanocytes
Test: Proliferation inhibitory test against melanocyte caused by ultraviolet irradiation
Assay type: cell-based
Conditions: cultured melanocytes, compound at 1 μg/ml
Experimental: Proliferation Inhibitory Test Against Melanocyte Caused by Ultraviolet Irradiation
Melanocytes were cultured according to the authentic method, and the proliferation of melanocytes in the presence or absence of test drugs under the ultraviolet irradiation was measured.

## O=C(Nc1cc(C(F)(F)F)cc(C(F)(F)F)c1)c1cc(Cl)ccc1O [Compound 50, N-[3,5-bis(trifluoromethyl)phenyl]-5-chloro-2-hydroxybenzamide]
  inhibition of transformation and proliferation of melanocyte under ultraviolet irradiation: almost completely inhibited
